“Also recorded” adds a separate entry of the source.
Columns and labels:
Pseudomonas aeruginosa [1] = assay: Microtiter plate biofilm inhibition assay (crystal violet); format: cell-based; settings: 10 μg/ml, LB media with 0.2% glucose, 24 hours at room temperature, average of three wells
Method: A microtiter plate assay was used to quantitatively measure the effect each tested compound had on the ability of bacteria to form a biofilm. In this example, a concentrated solution of each compound tested was loaded separately into three separate wells of a polystyrene microtiter plate. In addition, each assay included triplicate wells correlating to negative and positive controls. For the positive controls, biofilm inhibitors of known activity were used, whereas no inhibitors were added to wells correlating to negative controls. […] Thus, each well contained a final volume of approximately 200 μl (not including the volume of the concentrated inhibitor). […] The microtiter plates were then placed on a shaker for 24 hours at room temperature. After the 24 hour incubation period, the microtiter plate was removed from the shaker, rinsed, and stained. During the rinsing step, the test compound, media, and bacterial inoculum solution was drained from the plate, approximately 300 μl of 0.1M phosphate buffered saline (PBS) was added to each well, which was subsequently drained from the plate. The rinsing step removed any suspended cells from the assay. 0.1% crystal violet stain was added to each well for approximately 20 minutes. Next, the crystal violet solution was drained from the microtiter plate. The plate was rinsed with PBS as described above four (4) times to remove any excess stain from the plate. Following the PBS rinsing steps, the plate was eluted with 250 μl/well of ethanol, which improved the detection of the stain. The plate was immediately analyzed spectrophotometrically at 540 nm using a microtiter plate reader. The inhibitory effect each compound had on the bacteria's ability to form a biofilm on the surface of each well was determined as follows: The absorbance values observed for each set of three (3) wells correlating with a test compound or control were averaged. The average absorbance value for each test compound was compared to the average absorbance value of the negative control (the positive control was employed to verify proper assay function). In general, biofilm inhibition activity is inversely proportional to absorbance values, whereby, for example, low absorbance values correlate with significant inhibition activity and high absorbance values correlate with small or no inhibition activity. The approximate percent inhibition observed for each compound was calculated by comparing the average absorbance value for each test compound to the average absorbance value for the negative controls. Table 2 summarizes the average percent inhibition observed for the tested compounds listed against biofilms generated by Pseudomonas aeruginosa.

E. coli [2] = assay: Dose/response biofilm assay against E. coli (crystal violet, 540 nm); format: cell-based, Escherichia coli
Method: In this example, dose/response characteristics of the biofilm inhibitors were measured using compound 108. The assay employed to measure such dose/response characteristics was adapted from a reported protocol. See Pratt and Kolter, 1998, Molecular Microbiology, 30: 285-293; and Li et al., 2001, J. Bacteriol., 183: 897-908.
The biofilm inhibitory effect of compound 108 was then evaluated at different times and concentrations. In the first assay, compound 108 was added to the test system at the same time as the E. coli inoculum. Specifically, compound 108 was added to the system at final concentrations of 0, 1, 2, 5, and 10 μg/mL along with 50 μL of E. coli inoculum and 150 μL of LB media to measure its ability to inhibit the formation of biofilms. In a second assay, compound 108 was added after a biofilm had formed, i.e., 24 hours after the assay plate was inoculated with E. coli in LB media. In a third assay, compound 108 was tested at 0, 1, 2, 5, 10, and 15 μg/mL against E. coli in LB media with 0.2% glucose (whereby compound 108 was introduced into the system at the time of inoculation).
The suspension culture in each of the assay systems described above was drained from the plate and the residual biofilm, if any, was washed three (3) times with water. A solution containing 0.1% crystal violet was added to each well and maintained thereon for approximately 20 minutes. Following the staining procedure, each well was rinsed three (3) times with water. Each well was then analyzed spectrophotometrically in a microtiter plate reader at 540 nm to quantitate approximate biofilm mass and inhibition of biofilm growth by comparison to a negative control, which included inoculum and growth media alone.

E. coli JM109 = assay: Biofilm inhibition assay in 96 well plates (adapted from Pratt and Kolter); format: cell-based, Escherichia coli; settings: 10 μg/ml, LB with or without 0.2% glucose, 37° C. for two days without shaking
Method: Such compounds were evaluated using an assay adapted from a protocol reported in Pratt and Kolter, 1998, Molecular Microbiology, 30: 285-293; and Li et al., 2001, J. Bacteriol., 183: 897-908. […] Negative controls included only ethanol (the solvent for each test compound). To quantify the biofilm mass, the suspension culture was removed, the biofilm was washed three times with water, and then stained with 0.1% crystal violet for 20 minutes. Next, the plates were washed three times with water and analyzed by spectrophotometry at 540 nm to quantify the biofilm mass (by comparing the biofilm mass in the wells containing a test compound to that of the control wells).

Escherichia coli = assay: Minimum inhibitory concentration (NCCLS broth microdilution); format: cell-based; settings: LB media with 0.2% glucose, 35° C. for 20-24 hours
Method: (§1) The minimum inhibitory concentrations (MICs) for several of the specific biofilm inhibitors described herein were determined against several targets, including P. aeruginosa, E. coli, and Staphylococcus aureus. The MICs of the biofilm inhibitors were measured using the reference broth microdilution method recommended by the National Committee for Clinical Laboratory Standards (NCCLS).
(§2) […]. The negative control, generally, included the solvent in which the test compounds were dissolved. In this example, the wells correlating to the negative controls included ethanol (without any biofilm inhibitors).
(§3) In this example, 150 μl of sterile media was added to each well (LB media with 0.2% glucose), along with appropriate volumes of concentrated solutions of the inhibitors to be tested, followed by 50 μl of bacterial inoculum. Thus, each well contained a final volume of approximately 200 μl (not including the volume of the concentrated inhibitor). […]. The plate was subsequently rinsed, stained, and analyzed in accordance with the procedures described in Example 1.
(§4) Tables 7, 8, and 9 summarize the data observed and, specifically, the MICs calculated for the several compounds referenced therein against P. aeruginosa, E. coli, and S. aureus, respectively. The minimum inhibitory concentrations were calculated as the lowest inhibitor concentration at which biofilm inhibition was observed.

Staphylococcus aureus = assay: as above; format: cell-based; settings: LB media with 0.2% glucose; 35° C. for 20-24 hours
Method: as §1, §2, §3, §4

E. coli [3] = assay: Effect on viability/growth of E. coli (absorbance 620 nm); format: cell-based, Escherichia coli; settings: 1 to 15 μg/mL; LB media; 37° C. for two days; FIG. 1
Method: The dose/response behavior of compound 108 was tested against E. coli in LB media with and without 0.2% glucose. First, the effect of compound 108 on the viability of E. coli was measured. Compound 108 was added to a 96-well microtiter plate in triplicate wells to final concentrations of 0, 1, 2, 5, 10, and 15 μg/mL. Compound 108 was added to each well on the plate along with 50 μL of E. coli inoculum and 150 μL of LB and incubated at 37° C. for two days without shaking. After incubation, the plate was analyzed spectrophotometrically at 620 nm to quantitate the approximate levels of E. coli growth. The absorbance values observed for the test wells were averaged and compared to a negative control, i.e., wells containing no biofilm inhibitor.

Pseudomonas aeruginosa [4] = assay: Minimum inhibitory concentration (NCCLS broth microdilution); format: cell-based; settings: LB media with 0.2% glucose, 35° C. for 20-24 hours
Method: The minimum inhibitory concentrations (MICs) for several of the specific biofilm inhibitors described herein were determined against several targets, including P. aeruginosa, E. coli, and Staphylococcus aureus. The MICs of the biofilm inhibitors were measured using the reference broth microdilution method recommended by the National Committee for Clinical Laboratory Standards (NCCLS). […] In each assay, positive and negative controls were employed, wherein the positive control included an antimicrobial agent with a known potency range that was used to ensure proper assay performance. The negative control, generally, included the solvent in which the test compounds were dissolved. In this example, the wells correlating to the negative controls included ethanol (without any biofilm inhibitors). […] Thus, each well contained a final volume of approximately 200 μl (not including the volume of the concentrated inhibitor). […] After bacterial inoculation and loading of test and control samples, the plate was incubated in an ambient air environment at 35° C. for 20-24 hours. The plate was subsequently rinsed, stained, and analyzed in accordance with the procedures described in Example 1. […] The minimum inhibitory concentrations were calculated as the lowest inhibitor concentration at which biofilm inhibition was observed.

[5] = test system: Staphylococcus epidermidis; assay: Biofilm inhibition assay against Staphylococcus epidermidis; format: cell-based; settings: final concentration of 10 μg/ml, read-out: Inhibition of biofilm formation by S. epidermidis
[6] = test system: Pseudomonas aeruginosa strain PAO 1; assay: Rotating disk reactor biofilm test in combination with tobramycin; format: cell-based; settings: 48 hours biofilm; compound 110 approximately 100 μg/mL for 24 hours; tobramycin 100 μg/mL for two hours; polystyrene coupons
Method: In this example, compound 110 was tested for biofilm inhibition with Pseudomonas aeruginosa in combination with Tobramycin. Specifically, biofilm formation of P. aeruginosa was evaluated using a standardized biofilm method with a rotating disk reactor (RDR), which is also known as “ASTM Standard Method #E-2196-02.” The rotating disk reactor consisted of a one-liter glass beaker fitted with a drain spout. The bottom of the vessel contained a magnetically driven rotor with six 1.27 cm diameter coupons constructed from polystyrene. The rotor consisted of a star-head magnetic stir bar upon which a disk was affixed to hold the coupons. The vessel (with the stir bar) was placed on a stir plate and rotated to provide fluid shear. A nutrient solution (AB Trace Medium with 0.3 mM glucose, see Table 5 below for specific formulation) was added through a stopper in the top of the reactor at a flow rate of 5 mL/min. The reactor volume was approximately 180 mL. At a volume of 180 mL, the residence time of the reactors was 36 minutes. The reactors were operated at room temperature (c.a. 26° C.). In this example, two RDRs were operated in parallel with one receiving compound 110 and the other serving as an untreated control. […] The plates were incubated for 24 hours at 37° C. before colony forming units (CFU) were determined.

[7] = test system: human hepatocellular carcinoma cells (HepG2); assay: Cytotoxicity, fluorometric detection of mitochondrial activity; format: cell-based; settings: triplicate, approximate, gross cytotoxicity
Excerpt: Met. […] Chlorpromazine (or its equivalent) was used as a positive control.

Row | MIC (Escherichia coli; Escherichia coli, read-out: MIC (μg/mL) - Escherichia coli) | MIC (Pseudomonas aeruginosa [4]; Pseudomonas aeruginosa, read-out: MIC (μg/mL) - Pseudomonas aeruginosa) | SMILES | Biofilm Inhibition- Pseudomonas aeruginosa (Pseudomonas aeruginosa [1]) | Prevention of biofilm growth at 15 μg/mL (E. coli [2]; 15 μg/mL, E. coli in LB, added with inoculum, 0 through 50 hours of incubation, FIG. 2) | Concentration as low as which effective at reducing biofilm mass (E. coli [2]; E. coli in LB with 0.2% glucose, added along with the inoculum, FIG. 5) | Concentration as low as which reduces existing biofilm mass (E. coli [2]; E. coli in LB, added 24 hours after inoculation, FIG. 4) | Concentration as low as which effective in preventing biofilm formation (E. coli [2]; E. coli in LB, added along with the inoculum, FIGS. 2 and 3) | Estimated mass of existing biofilm after 24 hours of incubation with compound (E. coli [2]; each of the concentrations tested (1, 2, 5, 10 μg/mL), added 24 hours after inoculation, approximately 50 hours post inoculation, FIG. 4) | Biofilm Inhibition- Escherichia coli (E. coli JM109) | MIC (μg/mL) - Escherichia coli (Escherichia coli) | MIC (μg/mL) - Staphylococcus aureus (Staphylococcus aureus) | Effect on growth of E. coli (E. coli [3]) | MIC (μg/mL) - Pseudomonas aeruginosa (Pseudomonas aeruginosa [4]) | inhibition at 10 µg/mL [5] | CFU (in log 10) [6] | inhibition at 10 µg/mL (Pseudomonas aeruginosa [1]; Pseudomonas aeruginosa) | inhibition at 10 µg/mL (E. coli JM109; Escherichia coli, JM 109, 48 h) | Inhibition at 30 μM - Hep G2 cells [7]
1 |  |  | C[C@@H]1CC[C@]2(C(=O)O)CCC3(C)C(=CCC4C5(C)C[C@@H](O)[C@H](O)C(C)(C)C5CCC43C)C2[C@H]1C (stereo partly drawn) [Compound 108] | 52% | almost completely prevent biofilm growth | 1 µg/mL | 1 µg/mL | 1 µg/mL | decreased significantly | 74% | >15 µg/mL | >32 µg/mL | did not inhibit the growth; also recorded: does not inhibit the growth | >10 µg/mL |  |  |  |  | 
2 | > 10 µg/mL | > 128 µg/mL | C[C@H]1[C@H](C)CC[C@]2(C(=O)O)CC[C@]3(C)C(=CC[C@@H]4[C@@]5(C)CC[C@H](O)C(C)(C)[C@@H]5CC[C@]43C)[C@H]12 [Compound 110, ursolic acid] |  |  |  |  |  |  |  |  |  |  |  | ~25% | 7.1 CFU (in log 10) | 35% | 80% | 2%

— patent US20090192327A1, “METHODS AND COMPOSITIONS FOR INHIBITING BIOFILMS” (Sequoia Sciences, Inc., priority 2004, published 2009)
